Source: patent publication US11654136B2, “Phosphoinositide 3-kinase inhibitor with a zinc binding moiety” (Curis, Inc., priority 2011, dated 2023)

Assays:
Format in all cases: cell-based
HCT116 = experiment: Cell proliferation assay HCT116; details: Homo sapiens, HCT-116, Colon, 72 hours, read-out: IC50 antiproliferative activity
Protocol: (§1) Growth inhibition was accessed by adenosine triphosphate (ATP) content assay using Promega CellTiter-Glo kit. Promega CellTiter-Glo kit is an ATP monitoring system based on firefly luciferase. Briefly, 16 μl of mammalian cell lysis and substrate solution was added to 84 µl of culture medium per well to lyse the cells and stabilize the ATP. The mixture was shaken and incubated for 30 minutes and subsequently the luminescence was measured. IC50 values were calculated using PRISM software (GraphPad Software) with sigmoidal dose-response curve fitting.

SW620 = experiment: Cell proliferation assay SW620; details: Homo sapiens, SW-620, Colon, 72 hours, read-out: IC50 antiproliferative activity
Protocol: as §1

SWI-116 = experiment: Cell proliferation assay SWI-116; details: Homo sapiens, Colon, 72 hours, read-out: IC50 antiproliferative activity
Protocol: as §1

T-84 = experiment: Cell proliferation assay T-84; details: Homo sapiens, T84, Colon, 72 hours, read-out: IC50 antiproliferative activity
Protocol: as §1

H358 = experiment: Cell proliferation assay H358; details: Homo sapiens, NCI-H358, NSCLC, 72 hours, read-out: IC50 antiproliferative activity
Protocol: as §1

H292 = experiment: Cell proliferation assay H292; details: Homo sapiens, NCI-H292, NSCLC, 72 hours, read-out: IC50 antiproliferative activity
Protocol: as §1

H2122 = experiment: Cell proliferation assay H2122; details: Homo sapiens, NCI-H2122, NSCLC, 72 hours, read-out: IC50 antiproliferative activity
Protocol: as §1

H460 = experiment: Cell proliferation assay H460; details: Homo sapiens, NCI-H460, NSCLC, 72 hours, read-out: IC50 antiproliferative activity
Protocol: as §1

A549 = experiment: Cell proliferation assay A549; details: Homo sapiens, NSCLC, 72 hours, read-out: IC50 antiproliferative activity
Protocol: as §1

Calu6 = experiment: Cell proliferation assay Calu6; details: Homo sapiens, Calu-6, NSCLC, 72 hours, read-out: IC50 antiproliferative activity
Protocol: as §1

CFPAC-1 = experiment: Cell proliferation assay CFPAC-1; details: Homo sapiens, Pancreas, 72 hours, read-out: IC50 antiproliferative activity
Protocol: as §1

PANC-1 = experiment: Cell proliferation assay PANC-1; details: Homo sapiens, Pancreas, 72 hours, read-out: IC50 antiproliferative activity
Protocol: as §1

SW1990 = experiment: Cell proliferation assay SW1990; details: Homo sapiens, Pancreas, 72 hours, read-out: IC50 antiproliferative activity
Protocol: as §1

HCC1500 = experiment: Cell proliferation assay HCC1500; details: Homo sapiens, Breast, 72 hours, read-out: IC50 antiproliferative activity
Protocol: as §1

HCC1806 = experiment: Cell proliferation assay HCC1806; details: Homo sapiens, Breast, 72 hours, read-out: IC50 antiproliferative activity
Protocol: as §1

MDA-MB-231 = experiment: Cell proliferation assay MDA-MB-231; details: Homo sapiens, Breast, 72 hours, read-out: IC50 antiproliferative activity
Protocol: as §1

SKBr3 = experiment: Cell proliferation assay SKBr3; details: Homo sapiens, SK-BR-3, Breast, 72 hours, read-out: IC50 antiproliferative activity
Protocol: as §1

MDA-MB-361 = experiment: Cell proliferation assay MDA-MB-361; details: Homo sapiens, Breast, 72 hours, read-out: IC50 antiproliferative activity
Protocol: as §1

MCF-7 = experiment: Cell proliferation assay MCF-7; details: Homo sapiens, MCF7, Breast, 72 hours, read-out: IC50 antiproliferative activity
Protocol: as §1

T47D = experiment: Cell proliferation assay T47D; details: Homo sapiens, Breast, 72 hours, read-out: IC50 antiproliferative activity
Protocol: as §1

ZR-75-1 = experiment: Cell proliferation assay ZR-75-1; details: Homo sapiens, Breast, 72 hours, read-out: IC50 antiproliferative activity
Protocol: as §1

MDA-MB-468 = experiment: Cell proliferation assay MDA-MB-468; details: Homo sapiens, Breast, 72 hours, read-out: IC50 antiproliferative activity
Protocol: as §1

MOLT-4 = experiment: Cell proliferation assay MOLT-4; details: Homo sapiens, ALL, 72 hours, read-out: IC50 antiproliferative activity
Protocol: as §1

SUP-B15 = experiment: Cell proliferation assay SUP-B15; details: Homo sapiens, ALL, 72 hours, read-out: IC50 antiproliferative activity
Protocol: as §1

HL-60 = experiment: Cell proliferation assay HL-60; details: Homo sapiens, AML, 72 hours, read-out: IC50 antiproliferative activity
Protocol: as §1

U937 = experiment: Cell proliferation assay U937; details: Homo sapiens, U-937, AML, 72 hours, read-out: IC50 antiproliferative activity
Protocol: as §1

THP-1 = experiment: Cell proliferation assay THP-1; details: Homo sapiens, AML, 72 hours, read-out: IC50 antiproliferative activity
Protocol: as §1

Pfeiffer = experiment: Cell proliferation assay Pfeiffer; details: Homo sapiens, B-Cell Lymphoma, 72 hours, read-out: IC50 antiproliferative activity
Protocol: as §1

RL = experiment: Cell proliferation assay RL; details: Homo sapiens, B-Cell Lymphoma, 72 hours, read-out: IC50 antiproliferative activity
Protocol: as §1

Granta 519 = experiment: Cell proliferation assay Granta 519; details: Homo sapiens, B-Cell Lymphoma, 72 hours, read-out: IC50 antiproliferative activity
Protocol: as §1

Su-DHL4 = experiment: Cell proliferation assay Su-DHL4; details: Homo sapiens, SU-DHL-4, B-Cell Lymphoma, 72 hours, read-out: IC50 antiproliferative activity
Protocol: as §1

Daudi = experiment: Cell proliferation assay Daudi; details: Homo sapiens, B-Cell Lymphoma, 72 hours, read-out: IC50 antiproliferative activity
Protocol: as §1

HH = experiment: Cell proliferation assay HH; details: Homo sapiens, T-Cell Lymphoma, 72 hours, read-out: IC50 antiproliferative activity
Protocol: as §1

MJ = experiment: Cell proliferation assay MJ; details: Homo sapiens, T-Cell Lymphoma, 72 hours, read-out: IC50 antiproliferative activity
Protocol: as §1

HuT78 = experiment: Cell proliferation assay HuT78; details: Homo sapiens, T-Cell Lymphoma, 72 hours, read-out: IC50 antiproliferative activity
Protocol: as §1

K562 = experiment: Cell proliferation assay K562; details: Homo sapiens, CML, 72 hours, read-out: IC50 antiproliferative activity
Protocol: as §1

RPMI-8226 = experiment: Cell proliferation assay RPMI-8226; details: Homo sapiens, Multiple Myeloma, 72 hours, read-out: IC50 antiproliferative activity
Protocol: as §1

OPM-2 = experiment: Cell proliferation assay OPM-2; details: Homo sapiens, Multiple Myeloma, 72 hours, read-out: IC50 antiproliferative activity
Protocol: as §1

ARH77 = experiment: Cell proliferation assay ARH77; details: Homo sapiens, ARH-77, Multiple Myeloma, 72 hours, read-out: IC50 antiproliferative activity
Protocol: as §1

COc1ccc(-c2nc(N3CCOCC3)c3sc(CN(C)c4ncc(C(=O)NO)cn4)cc3n2)cn1 [Compound 1, N-hydroxy-2-(((2-(6-methoxypyridin-3-yl)-4-morpholinothieno[3,2-d]pyrimidin-6-yl)methyl)(methyl)amino)pyrimidine-5-carboxamide]
IC50 (HCT116): < 10 nM
IC50 (SW620): < 0.01 µM
IC50 (SWI-116): < 0.01 µM
IC50 (T-84): 10 to 100 nM
IC50 (H358): < 10 nM
IC50 (H292): < 10 nM
IC50 (H2122): < 10 nM
IC50 (H460): 10 to 100 nM
IC50 (A549): 10 to 100 nM
IC50 (Calu6): 10 to 100 nM
IC50 (CFPAC-1): 10 to 100 nM
IC50 (PANC-1): 10 to 100 nM
IC50 (SW1990): < 0.01 µM
IC50 (HCC1500): < 0.01 µM
IC50 (HCC1806): 10 to 100 nM
IC50 (MDA-MB-231): 10 to 100 nM
IC50 (SKBr3): 10 to 100 nM
IC50 (MDA-MB-361): < 10 nM
IC50 (MCF-7): < 10 nM
IC50 (T47D): 10 to 100 nM
IC50 (ZR-75-1): 10 to 100 nM
IC50 (MDA-MB-468): 10 to 100 nM
IC50 (MOLT-4): < 10 nM
IC50 (SUP-B15): < 10 nM
IC50 (HL-60): < 10 nM
IC50 (U937): < 10 nM
IC50 (THP-1): 10 to 100 nM
IC50 (Pfeiffer): < 10 nM
IC50 (RL): < 10 nM
IC50 (Granta 519): < 0.01 µM
IC50 (Su-DHL4): < 10 nM
IC50 (Daudi): 10 to 100 nM
IC50 (HH): < 10 nM
IC50 (MJ): < 0.01 µM
IC50 (HuT78): < 10 nM
IC50 (K562): 10 to 100 nM
IC50 (RPMI-8226): < 0.01 µM
IC50 (OPM-2): < 10 nM
IC50 (ARH77): < 0.01 µM

CS(=O)(=O)N1CCN(Cc2cc3nc(-c4cccc5[nH]ncc45)nc(N4CCOCC4)c3s2)CC1 [GDC-0941, reference compound]
IC50 (HCT116): 1000 to 10000 nM
IC50 (SW620): > 10 µM
IC50 (SWI-116): > 10 µM
IC50 (T-84): 1000 to 10000 nM
IC50 (H358): 1000 to 10000 nM
IC50 (H292): 1000 to 10000 nM
IC50 (H2122): 1000 to 10000 nM
IC50 (H460): > 10000 nM
IC50 (A549): 1000 to 10000 nM
IC50 (Calu6): > 10000 nM
IC50 (CFPAC-1): > 10000 nM
IC50 (PANC-1): 1000 to 10000 nM
IC50 (SW1990): > 10 µM
IC50 (HCC1500): > 10 µM
IC50 (HCC1806): > 10000 nM
IC50 (MDA-MB-231): > 10000 nM
IC50 (SKBr3): > 10000 nM
IC50 (MDA-MB-361): 100 to 1000 nM
IC50 (MCF-7): 100 to 1000 nM
IC50 (T47D): > 10000 nM
IC50 (ZR-75-1): 100 to 1000 nM
IC50 (MDA-MB-468): 100 to 1000 nM
IC50 (MOLT-4): 100 to 1000 nM
IC50 (SUP-B15): 1000 to 10000 nM
IC50 (HL-60): 100 to 1000 nM
IC50 (U937): 1000 to 10000 nM
IC50 (THP-1): 1000 to 10000 nM
IC50 (Pfeiffer): 100 to 1000 nM
IC50 (RL): 1000 to 10000 nM
IC50 (Granta 519): > 10 µM
IC50 (Su-DHL4): 100 to 1000 nM
IC50 (Daudi): > 10000 nM
IC50 (HH): 100 to 1000 nM
IC50 (MJ): > 10 µM
IC50 (HuT78): 100 to 1000 nM
IC50 (K562): 1000 to 10000 nM
IC50 (RPMI-8226): > 10 µM
IC50 (OPM-2): 10 to 100 nM
IC50 (ARH77): > 10 µM
